Bridge positions count the residues as written; N and C are the ends. Square brackets hold non-standard residues; d marks the D form. Peptide text beside a SMILES is read from it. R8 = C=CCCCCCC[C@@](C)(N)C(=O)O; R5 = C=CCCC[C@@](C)(N)C(=O)O; S5 = C=CCCC[C@](C)(N)C(=O)O; Nle = CCCC[C@H](N)C(=O)O
Tested on: HRE-bla ME-180 cells
Assay: Reporter gene assay (HRE-bla ME-180 HIF reporter, GeneBLAzer)
Format: cell-based, human
Conditions: for EC50: 24 hour normoxia
How it was run: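 A FRET β-lactamase readout of HIF transcription was used. After compound treatment in 0.3% DMSO/media under normoxic conditions, 20 μl of 6× LiveBLAzer-FRET B/G (CCF4-AM) substrate was added. Plates sat 3 hr at room temperature in the dark and were read at 409 Ex/460Em and 409Ex/530Em on a Synergy 2. Inhibition was compared against DMSO vehicle controls, with chetomin as positive control.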

| Compound | EC50 [µM] | 18 h Avg % max inhibition at top conc (HIF Rptr-24 hrs normoxia) (μM) |
| --- | --- | --- |
| CC[C@H](C)[C@H](NC(C)=O)C(=O)N[C@@H](CC(=O)O)C(=O)N[C@@H](CCC(=O)O)C(=O)N[C@@H](CCC(=O)O)C(=O)N[C@H](C(=O)N[C@@H](CC(C)C)C(=O)N[C@@H](CCSC)C(=O)N[C@@]1(C)CCCC=CCCC[C@@](C)(C(=O)N[C@@H](CCSC)C(=O)NCC(=O)N[C@@H](CC(C)C)C(=O)N[C@@H](CC(=O)O)C(=O)N[C@@H](CCCNC(=N)N)C(=O)N[C@H](C(=O)N[C@@H](CCCCN)C(=O)N[C@@H](CCC(=O)O)C(=O)N[C@@H](CC(C)C)C(=O)N2CCC[C@H]2C(=O)N[C@@H](CCC(=O)O)C(=O)N[C@@H](CC(C)C)C(=O)N[C@@H](Cc2c[nH]c3ccccc23)C(=O)N[C@@H](CC(C)C)C(N)=O)[C@@H](C)CC)NC(=O)[C@H]([C@@H](C)CC)NC(=O)[C@H](C(C)C)NC(=O)[C@H](CC(C)C)NC1=O)C(C)C [SP-86] (Ac-IDEEVLM[S5]LVI[S5]MGLDRIKELPELWL-NH2; staple 8-12) | 5 to 15 | ++++ (≥50: ++++) |
| CC[C@H](C)[C@H](NC(=O)[C@H](Cc1ccccc1)NC(C)=O)C(=O)N[C@@H](CC(=O)O)C(=O)N[C@@H](CCC(=O)O)C(=O)N[C@]1(C)CCCCCCC=CCCC[C@@](C)(C(=O)N[C@@H](CCC(=O)O)C(=O)N[C@@H](CCSC)C(=O)NCC(=O)N[C@@H](CC(C)C)C(=O)N[C@@H](CC(=O)O)C(=O)N[C@@H](CCCNC(=N)N)C(=O)N[C@H](C(=O)N[C@@H](CCCCN)C(=O)N[C@@H](CCC(=O)O)C(=O)N[C@@H](CC(C)C)C(=O)N2CCC[C@H]2C(=O)N[C@@H](CCC(=O)O)C(=O)N[C@@H](CC(C)C)C(=O)N[C@@H](Cc2c[nH]c3ccccc23)C(=O)N[C@@H](CC(C)C)C(N)=O)[C@@H](C)CC)NC(=O)[C@H](C(C)C)NC(=O)[C@H](CC(C)C)NC(=O)[C@H](CO)NC(=O)[C@H](CCSC)NC(=O)[C@H](CC(C)C)NC(=O)[C@H](C(C)C)NC1=O [SP-82] (Ac-FIDE[R8]VLMSLV[S5]EMGLDRIKELPELWL-NH2; staple 5-12) | > 30 | + (<10: +) |
| CCCC[C@H](NC(=O)[C@H](CC(C)C)NC(=O)[C@@H](NC(=O)[C@H](CCC(=O)O)NC(=O)[C@H](CCC(=O)O)NC(=O)[C@H](CC(=O)O)NC(=O)[C@@H](NC(=O)[C@H](Cc1ccccc1)NC(C)=O)[C@@H](C)CC)C(C)C)C(=O)N[C@@]1(C)CCCC=CCCC[C@@](C)(C(=O)N[C@@H](CCCC)C(=O)N[C@@H](C)C(=O)N[C@@H](CC(C)C)C(=O)N[C@@H](CC(=O)O)C(=O)N[C@@H](CO)C(=O)N[C@H](C(N)=O)[C@@H](C)CC)NC(=O)[C@H]([C@@H](C)CC)NC(=O)[C@H](C(C)C)NC(=O)[C@H](CC(C)C)NC1=O [SP-58] (Ac-FIDEEVL[Nle][S5]LVI[S5][Nle]ALDSI-NH2; staple 9-13) | > 30 | +++ (≤25 but <50: +++) |
| CCCC[C@H](NC(=O)[C@H](CC(C)C)NC(=O)[C@@H](NC(=O)[C@H](CCC(=O)O)NC(=O)[C@H](C)NC(=O)[C@H](CC(=O)O)NC(=O)[C@@H](NC(=O)[C@H](Cc1ccccc1)NC(C)=O)[C@@H](C)CC)C(C)C)C(=O)N[C@@]1(C)CCCC=CCCC[C@@](C)(C(=O)N[C@@H](CCCC)C(=O)N[C@@H](C)C(=O)N[C@@H](CC(C)C)C(=O)N[C@@H](CC(=O)O)C(=O)N[C@@H](CCCNC(=N)N)C(=O)N[C@H](C(N)=O)[C@@H](C)CC)NC(=O)[C@H]([C@@H](C)CC)NC(=O)[C@H](C(C)C)NC(=O)[C@H](CC(C)C)NC1=O [SP-12] (Ac-FIDAEVL[Nle][S5]LVI[S5][Nle]ALDRI-NH2; staple 9-13) | 5 to 15 | ++++ (≥50: ++++) |
| CCCC[C@H](NC(=O)[C@H](CC(C)C)NC(=O)[C@H](C)NC(=O)[C@H](CCC(=O)O)NC(=O)[C@H](CCC(=O)O)NC(=O)[C@H](CC(=O)O)NC(=O)[C@@H](NC(=O)[C@H](Cc1ccccc1)NC(C)=O)[C@@H](C)CC)C(=O)N[C@@]1(C)CCCC=CCCC[C@@](C)(C(=O)N[C@@H](CCCC)C(=O)N[C@@H](C)C(=O)N[C@@H](CC(C)C)C(=O)N[C@@H](CC(=O)O)C(=O)N[C@@H](CCCNC(=N)N)C(=O)N[C@H](C(N)=O)[C@@H](C)CC)NC(=O)[C@H]([C@@H](C)CC)NC(=O)[C@H](C(C)C)NC(=O)[C@H](CC(C)C)NC1=O [SP-14] (Ac-FIDEEAL[Nle][S5]LVI[S5][Nle]ALDRI-NH2; staple 9-13) | 5 to 15 | ++++ (≥50: ++++) |
| CCCC[C@H](NC(=O)[C@H](CC(C)C)NC(=O)[C@@H](NC(=O)[C@H](CCC(=O)O)NC(=O)[C@H](CCC(=O)O)NC(=O)[C@H](CC(=O)O)NC(=O)[C@@H](NC(=O)[C@H](C)NC(C)=O)[C@@H](C)CC)C(C)C)C(=O)N[C@@]1(C)CCCC=CCCC[C@@](C)(C(=O)N[C@@H](CCCC)C(=O)N[C@@H](C)C(=O)N[C@@H](CC(C)C)C(=O)N[C@@H](CC(=O)O)C(=O)N[C@@H](CCCNC(=N)N)C(=O)N[C@H](C(N)=O)[C@@H](C)CC)NC(=O)[C@H]([C@@H](C)CC)NC(=O)[C@H](C(C)C)NC(=O)[C@H](CC(C)C)NC1=O [SP-9] (Ac-AIDEEVL[Nle][S5]LVI[S5][Nle]ALDRI-NH2; staple 9-13) | 15 to 30 | +++ (≤25 but <50: +++) |
| CCCC[C@H](NC(=O)[C@H](CC(C)C)NC(=O)[C@@H](NC(=O)[C@H](CCC(=O)O)NC(=O)[C@H](CCC(=O)O)NC(=O)[C@H](CC(=O)O)NC(=O)[C@@H](NC(=O)[C@H](Cc1ccccc1)NC(C)=O)[C@@H](C)CC)C(C)C)C(=O)N[C@]1(C)CCCC=CCCC[C@](C)(C(=O)N[C@@H](CCCC)C(=O)N[C@@H](C)C(=O)N[C@@H](CC(C)C)C(=O)N[C@@H](CC(=O)O)C(=O)N[C@@H](CCCNC(=N)N)C(=O)N[C@H](C(N)=O)[C@@H](C)CC)NC(=O)[C@H]([C@@H](C)CC)NC(=O)[C@H](C(C)C)NC(=O)[C@H](CC(C)C)NC1=O [SP-296] (Ac-FIDEEVL[Nle][R5]LVI[R5][Nle]ALDRI-NH2; staple 9-13) | ≤ 5 | ++++ (≥50: ++++) |

The next lines start with results.

| EC50 [µM] | Compound | 18 h Avg % max inhibition at top conc (HIF Rptr-24 hrs normoxia) (μM) |
| --- | --- | --- |
| 15 to 30 | CCCC[C@H](NC(=O)[C@H](CC(C)C)NC(=O)[C@@H](NC(=O)[C@H](CCC(=O)O)NC(=O)[C@H](CCC(=O)O)NC(=O)[C@H](CC(=O)O)NC(=O)[C@@H](NC(=O)[C@H](Cc1ccccc1)NC(C)=O)[C@@H](C)CC)C(C)C)C(=O)N[C@@]1(C)CCCC=CCCC[C@@](C)(C(=O)N[C@@H](CCC(=O)O)C(=O)N[C@@H](C)C(=O)N[C@@H](CC(C)C)C(=O)N[C@@H](CC(=O)O)C(=O)N[C@@H](CCCNC(=N)N)C(=O)N[C@H](C(N)=O)[C@@H](C)CC)NC(=O)[C@H]([C@@H](C)CC)NC(=O)[C@H](C(C)C)NC(=O)[C@H](CC(C)C)NC1=O [SP-38] (Ac-FIDEEVL[Nle][S5]LVI[S5]EALDRI-NH2; staple 9-13) | ++++ (≥50: ++++) |
| 5 to 15 | CC[C@H](C)[C@H](NC(=O)[C@H](CCCNC(=N)N)NC(=O)[C@H](CC(=O)O)NC(=O)[C@H](CC(C)C)NC(=O)CNC(=O)[C@H](CCSC)NC(=O)[C@]1(C)CCCC=CCCC[C@](C)(NC(=O)[C@H](CCSC)NC(=O)[C@H](CC(C)C)NC(=O)[C@@H](NC(=O)[C@H](CCC(=O)O)NC(C)=O)C(C)C)C(=O)N[C@@H](CC(C)C)C(=O)N[C@@H](C(C)C)C(=O)N[C@@H]([C@@H](C)CC)C(=O)N1)C(=O)N[C@@H](CCCCN)C(=O)N[C@@H](CCC(=O)O)C(=O)N[C@@H](CC(C)C)C(=O)N1CCC[C@H]1C(=O)N[C@@H](CCC(=O)O)C(=O)N[C@@H](CC(C)C)C(=O)N[C@@H](Cc1c[nH]c2ccccc12)C(=O)N[C@@H](CC(C)C)C(N)=O [SP-89] (Ac-EVLM[S5]LVI[S5]MGLDRIKELPELWL-NH2; staple 5-9) | +++ (≤25 but <50: +++) |
| 5 to 15 | CCCC[C@H](NC(=O)[C@H](CC(C)C)NC(=O)[C@@H](NC(=O)[C@H](CCC(=O)O)NC(=O)[C@H](CCC(=O)O)NC(=O)[C@H](CC(=O)O)NC(=O)[C@@H](NC(=O)[C@H](Cc1ccccc1)NC(C)=O)[C@@H](C)CC)C(C)C)C(=O)N[C@@]1(C)CCCC=CCCC[C@@](C)(C(=O)N[C@@H](C)C(=O)N[C@@H](C)C(=O)N[C@@H](CC(C)C)C(=O)N[C@@H](CC(=O)O)C(=O)N[C@@H](CCCNC(=N)N)C(=O)N[C@H](C(N)=O)[C@@H](C)CC)NC(=O)[C@H]([C@@H](C)CC)NC(=O)[C@H](C(C)C)NC(=O)[C@H](CC(C)C)NC1=O [SP-20] (Ac-FIDEEVL[Nle][S5]LVI[S5]AALDRI-NH2; staple 9-13) | ++++ (≥50: ++++) |
| 5 to 15 | CCCC[C@H](NC(=O)[C@H](CC(C)C)NC(=O)[C@@H](NC(=O)[C@H](CCC(=O)O)NC(=O)[C@H](CCC(=O)O)NC(=O)[C@H](C)NC(=O)[C@@H](NC(=O)[C@H](Cc1ccccc1)NC(C)=O)[C@@H](C)CC)C(C)C)C(=O)N[C@@]1(C)CCCC=CCCC[C@@](C)(C(=O)N[C@@H](CCCC)C(=O)N[C@@H](C)C(=O)N[C@@H](CC(C)C)C(=O)N[C@@H](CC(=O)O)C(=O)N[C@@H](CCCNC(=N)N)C(=O)N[C@H](C(N)=O)[C@@H](C)CC)NC(=O)[C@H]([C@@H](C)CC)NC(=O)[C@H](C(C)C)NC(=O)[C@H](CC(C)C)NC1=O [SP-11] (Ac-FIAEEVL[Nle][S5]LVI[S5][Nle]ALDRI-NH2; staple 9-13) | ++++ (≥50: ++++) |
| 5 to 15 | CCCC[C@H](NC(=O)[C@H](CC(C)C)NC(=O)[C@@H](NC(=O)[C@H](CCC(=O)O)NC(=O)[C@H](CCC(=O)O)NC(=O)[C@H](CC(=O)O)NC(=O)[C@@H](NC(=O)[C@H](Cc1ccccc1)NC(C)=O)[C@@H](C)CC)C(C)C)C(=O)N[C@@]1(C)CCCC=CCCC[C@@](C)(C(=O)N[C@@H](CCCC)C(=O)N[C@@H](C)C(=O)N[C@@H](CC(C)C)C(=O)N[C@@H](CC(=O)O)C(=O)N[C@@H](CCCNC(=N)N)C(=O)N[C@H](C(N)=O)[C@@H](C)CC)NC(=O)[C@H](CO)NC(=O)[C@H](C(C)C)NC(=O)[C@H](CC(C)C)NC1=O [SP-53] (Ac-FIDEEVL[Nle][S5]LVS[S5][Nle]ALDRI-NH2; staple 9-13) | +++ (≤25 but <50: +++) |
